Experimental data reported in a melting point compilation (Tetko et al.; mined from patent text by program, amines drawn as free bases though some values may be those of a salt).

Structure (SMILES) | melting point
Cc1ccc(S(=O)(=O)OC[C@H]2CC[C@H](C#N)CC2)cc1 | 84 to 85 °C
O=c1[nH]nc(-c2ccc(-n3ccnc3)cc2)c2ncccc12 | 376 to 378 °C
CCN1C(=O)CSC1=NOC(=O)NCCCl | 99 to 102 °C
CC(C)(C)OC(=O)N1CCN(c2cccc3c2cnn3S(=O)(=O)c2ccccc2)CC1 | 130 °C
COC(=O)c1ccccc1SC1=C(O)CC(CCC(C)C)(c2ccccc2)OC1=O (stereo not drawn) | 115 to 116 °C
CCCn1cc(-c2c(-c3ccccc3)nn3ccncc23)ccc1=O | 165 to 166 °C
CCCCCCCOc1c(OC)cc([N+](=O)[O-])c2nccc(C)c12 | 52 to 55 °C
CN1C(=O)[C@H](NC(=O)CCc2cccc(C#N)c2)N=C(c2ccccc2)c2ccccc21 | 110 to 112 °C
N#Cc1cccnc1N1CCN(CC(=O)Nc2ccccc2C(F)(F)F)CC1 | 143 to 145 °C
COc1c(C(=O)O)ccc2ccccc12 | 118 to 122 °C
CC(=O)COc1ccc(Cc2ccccc2)cc1 | 51 to 52 °C
CSc1cc(Cl)ccc1C(=O)CC#N | 139 to 141 °C
COC(=O)c1cc(-c2ccc(Cl)c(C)c2)n(Cc2ccc(C)cc2)n1 | 98 °C
CCOP(=O)(CNC(C)(c1ccccc1)c1cc(C(C)(C)C)c(O)c(C(C)(C)C)c1)OCC (stereo not drawn) | 104 to 105 °C
Cc1cc(Br)ccc1N=CN(C)SN(C)C=Nc1ccc(Br)cc1C | 127 to 129 °C
CC(C)(C)OC(=O)NC(=N)NC(=O)c1cccc(P(c2ccccc2)c2ccccc2)c1 | 79 to 82 °C
COC(=O)c1c(C(=O)OC)c(-c2ccc(OC)c(OC)c2)c2cc3c(cc2c1O)OCO3 | 158 to 159 °C
CCCC(=O)Nc1ccc(-c2cc(C(C)(C)C)c(O)c(C(C)(C)C)c2)cc1 | 180 to 181 °C
CC(C)n1nc(-c2c(-c3ccccc3)nn3ccc(OCCCN(C)C)cc23)ccc1=O | 125 to 126 °C
NC(=O)c1cccc(OCCCCC/C=C\c2ccsc2)c1 | 71 to 73 °C
COC(=O)c1ccc(Oc2c(C)n(CC(=O)O)c3ccc(Cl)cc23)cc1 | 196 to 197 °C

Structure (SMILES) | melting point
Oc1ccc(-c2ccccn2)c(O)c1 | 170 to 172 °C
Cc1ccc(C#N)c(Sc2ccc(F)cc2)c1 | 93 to 96 °C
COc1cc2c(cc1OC)C(=O)C(=O)N(CCCN(C)CCCSc1ccccc1)CC2 | 77 to 79 °C
CCSc1cc(C)nc(SCC)c1NC(=O)CCCCCSc1nc2ccccc2s1 | 81 to 83 °C
O=c1ccc(C(F)(F)F)cn1-c1ccc(NCCO)cc1Cl | 161 to 164 °C
CC(CO)N1CCN(c2cccc3c2OCCO3)CC1 (stereo not drawn) | 91 to 92 °C
CCCc1nc(C)n2nc(N)nc2c1Cc1ccc(-c2ccccc2C#N)cc1 | 150 °C
NC(=O)N1CCC(OCCN2CCCCC2)C1 (stereo not drawn) | 134 to 136 °C
Cn1c(=O)n(Cc2ccc(C#N)cc2)c(=O)c2nc(-c3ccc(/C=C/C(=O)O)cc3)[nH]c21 | > 300 °C
O=C(NCCCC(=O)N1CCCC1)c1cc(Br)no1 | 120 to 121 °C
O=C(NCC12CC3CC(CC(C3)C1)C2)c1cc(-c2ccccc2C(=O)O)ccc1Cl | 228 to 230 °C
O=C(CCc1oc(-n2ccnc2)nc1-c1ccc(Cl)cc1)NCCCl | 130 to 131 °C
Nc1ccc(Cl)cc1C(=O)c1c(F)cccc1F | 103 to 105 °C
CCCc1[nH]cnc1C(=O)OCC | 175 to 179 °C
COc1nc2cc(Cl)c(C)c(NS(C)(=O)=O)c2nc1OC | 228 to 229 °C
CC(=O)N1c2c(ccn3c(C)c(C)nc23)[C@@H](O)[C@H](O)[C@H]1c1ccccc1 | 260 to 261 °C
C=C(Cl)CS(=O)(=O)NC(=O)c1nc(OC)cc(OC)n1 | 125 to 130 °C
NC(=O)c1sccc1S | 116 to 120 °C
Cn1cc(Br)cc(N)c1=O | 104 to 105 °C
Oc1cc(-c2ccccc2)nc2ccc(Cl)cc12 | > 350 °C
CCNS(=O)(=O)Oc1cc(C(C)(C)C)c(SC2=C(O)CC(CCc3ccc(N)cc3)(CCc3ccc(N)cc3)OC2=O)cc1C | 194 °C

Structure (SMILES) | melting point
CC1(C)OC(c2ccc(S(C)(=O)=O)c(F)c2)=C(c2cccc(Cl)c2)C1=S | 105 to 106 °C
Clc1ccc(CN2CC3(COc4cc5c(cc43)OCO5)c3ccccc32)o1 (stereo not drawn) | 148 to 150 °C
CC(C)(CO)c1cc(Cl)nnc1Cl | 133 to 136 °C
Nc1ccnn1-c1c(Cl)cc(C(F)(F)F)cc1Cl | 90 to 94 °C
Cc1cc(C)cc(C(=O)N2CCN(C(=O)CBr)C(c3ccc(Cl)c(Cl)c3)C2)c1 (racemic) | 68 to 71 °C
CCCCN(C(=O)c1cc(C(C)(C)C)c(O)c(C(C)(C)C)c1)C1CC(C)(C)N(OC(C)=O)C(C)(C)C1 | 161 to 164 °C
CN1C(=O)CC[C@]2(C)c3ccc(-c4cc5ccccc5c5ccccc45)cc3CC[C@@H]12 | 218 to 220 °C
CC(=O)OC1C(Oc2cccc(O)c2C(=O)CCc2ccc3occc3c2)OC(CO)C(O)C1OC(C)=O (stereo not drawn) | 127 to 129 °C
Cc1nccn1-c1nc(-c2ccc(Cl)cc2)c(CCCn2cccn2)o1 | 129 to 130 °C
CC1=NS(=O)(=O)N(Cc2ccncc2)C=C1 | 100 to 101 °C
Cc1cc(S(=O)(=O)Nc2cc(F)c(Oc3cnc4ccccc4c3)c(Cl)c2)c(Cl)cc1Cl | 187 °C
COCOc1c(-c2ccccc2)sc2cnccc12 | 55 to 56 °C
CC(C)NC1=NS(=O)(=O)c2ccc(CC(=O)O)cc2N1 | 262 to 264 °C
CCOC1CC2(C)C(CCC3C4CCC(=O)C4(C)CC(=O)C32)CC1O (stereo not drawn) | 164 to 167 °C
Cn1ncc2cc(/C=C/c3ccc(O)cc3)ccc2c1=O | 223 to 225 °C
COc1nc(C(F)(F)F)cc(=O)n1-c1cc(OC(C)C)c(Br)cc1F | 137 °C
O=C1C(Cl)=C(Cl)C(=O)N1c1ccc(Oc2ccccc2)cc1 | 180 to 181 °C
CCOc1cc2ncc(C#N)c(N(C)c3ccccc3)c2cc1OCC | 153 to 155 °C
N#Cc1c(-c2ccc(OCc3ccccc3)cc2)[nH]c2ccc(OCc3ccccc3)cc12 | 64 to 66 °C
COc1ccc(CC(C)NCC(O)c2cccc(Br)c2)cc1 (stereo not drawn) | 79 to 83 °C
Cn1ncc(C(=O)NN)c1S(N)(=O)=O | 172 to 173 °C

Second part, the molecule after the results:

melting point | Structure (SMILES)
178 to 181 °C | CCOCc1nc2c(N)nc3ccccc3c2n1NCCCNC(C)=O
186 to 189 °C | CC(=O)N1CCC(OC(=O)c2ccccc2)(c2nccc3ccccc23)CC1
55 to 57 °C | CCCCCCCCCCCCCCSCc1ccc(C(C)=O)o1
92.2 to 98.4 °C | CCOC(=O)C1=Cc2cc(S(C)=O)ccc2OC1C(F)(F)F (stereo not drawn)
224 to 227 °C | COc1ccc(-c2cnn3c(N)c(-c4ccc(F)c(Cl)c4)c(C)nc23)cc1
117 to 118 °C | O=[N+]([O-])c1cccc(C=NC2CCOc3ccccc32)c1 (stereo not drawn)
260 to 261 °C | Cn1c(=O)cc(-c2cccc(O)c2)c2cccnc21
184 to 186 °C | O=C1CCC(c2ccccc2)c2cc(Cl)ccc2N1 (stereo not drawn)
174 to 175 °C | CCOC(=O)Cn1c(CC)nc2nc3cc(Cl)ccc3nc21
199 to 200 °C | O=C1c2c(Cl)cc(Cl)c(Cl)c2C(=O)N1c1ccccc1
200 to 202 °C | N#Cc1ccc(S(=O)(=O)c2ccc(S(N)(=O)=O)s2)c(F)c1
260 °C | CCOC(=O)C(=O)Nc1cc2[nH]c(=O)c(=O)n(C3CCCCC3)c2cc1[N+](=O)[O-]
107 to 108 °C | COc1cc(C(C)=O)cc(OC)c1OCCCN1CCC(c2noc3cc(F)ccc23)CC1
217 to 219 °C | CCn1c(=O)n(CC(C)(C)O)c(=O)c2[nH]cnc21
160 °C | Cc1ccc(S(=O)(=O)n2ccc3cc(F)cnc32)cc1
178 to 181 °C | Cc1ccc(-c2ccc3c(c2)C=C(C(=O)Nc2ccc(CN(C)C4CCOCC4)cc2)CCN3C)cc1
147 to 149 °C | CCCOc1ccccc1-c1nc2cc3c(cc2c(=O)[nH]1)NCN3CC
232 to 234 °C | COC(=O)Nc1nc(C)c(-c2nc3ccccc3c(=O)n2-c2ccc(C(C)=O)cc2)s1
84 to 86 °C | Cc1cccc(-c2[nH]c(C(C)C)nc2-c2cccc(-c3ccncc3)c2)n1
120 to 170 °C | O=S(c1[nH]c(-c2ccc(Cl)cc2)c(S(=O)(=O)C(F)(F)F)c1Br)C(F)(F)F (stereo not drawn)

melting point | Structure (SMILES)
208 to 211 °C | Cc1cc(O)nn1-c1ccc(Cl)c(Cl)c1
130 to 133 °C | C[C@@H](n1cnc2cc(N3CCN(c4ccc(Cl)cc4)CC3)c(F)cc2c1=O)[C@](O)(Cn1cncn1)c1ccc(F)cc1F
225 to 228 °C | Nc1ccc(C(=O)N2Cc3cccn3-c3ccccc32)cc1
134 to 136 °C | N#Cc1cc(Cl)c(NC(=O)C(F)(F)F)c(Cl)c1
106 to 108 °C | COc1ccc2[nH]c(SCc3nccc(SCc4ccco4)c3C)nc2c1
190 °C | CC1(NC(=O)CN2C(=O)c3ccccc3C2=O)CCCCCC1
90.5 to 92 °C | CCc1ccc(CCOc2ccc(NC(=O)N(C)OC)cc2)nc1
125 to 128 °C | COc1cccc(C=CC2=NN(C(C)=O)C(C)Cc3cc4c(cc32)OCO4)c1OC (stereo not drawn)
48 to 54 °C | Nc1ccccc1CNC1CCC(=O)NC1=O (stereo not drawn)
262 to 264 °C | CCCc1ccnc2c(=O)[nH]c(-c3cc(S(=O)(=O)N4CCC(C(=O)O)CC4)ccc3OCC)nc12
153 to 155 °C | CC1(C)O[C@@H](CC(=O)O)C[C@@H](C=Cc2ccccc2)O1 (relative stereo)
184 °C | Nc1cc(=O)n(Cc2ccccc2C(F)(F)F)[nH]1
78 to 79 °C | Cc1nc(C(=O)NCCO[N+](=O)[O-])cs1
194 to 195 °C | CC(=O)N1c2ccccc2CC1C(N)=S (stereo not drawn)
68 to 70 °C | Oc1cnccc1CCCOc1cccnc1Oc1cccc(F)c1
93.1 to 94.7 °C | CCOC(=O)C1=Cc2cc(C)ccc2SC1C(F)(F)F (stereo not drawn)
104 °C | CCOCn1c(-c2ccc(Cl)cc2)c(C#N)c(Cl)c1C(F)(F)F
137 to 139 °C | Cc1cc(=O)on1C(=O)c1ccc(Cl)cc1Cl
117 to 119 °C | COc1ccc2nc(C)sc2c1N
90 to 91 °C | O=C1c2ccccc2C(=O)N1CCCCCCCCCCOc1ccc(-n2ccnc2)cc1
